The text below walks through data of patent US4551453A, “2-(ω-Alkylaminoalkyl)- and 2-(ω-dialkylaminoalkyl-3-(4-X-benzylidene)-phthalimidines” (Laboratori Baldacci SpA, priority 1982, dated 1985).

The term LD50 denotes the dose at which mortality reaches 50%. Low readings indicate a more toxic substance, high ones a less toxic substance.

Structures can show the parent of a compound that is named as a salt.

One data set concerns mice. The conditions noted are these: i.v. route.
For data set [1], the system named is sciatic nerve of edible frog. Kind of data set: Test on the sciatic nerve of frog (inhibition of action potential). The conditions noted are these: for times more active than lidocaine: deduced from frog sciatic nerve comparison with procaine and literature lidocaine/procaine ratio; for times more powerful than procaine: sciatic nerve of frog, vs procaine. As to the method: There was assessed the concentration of the tested substances (AL 12, AL 12 B and AL 5) capable of inhibiting or reducing the action potential of the sciatic nerve of edible frog after removal of a lenght of perinerium.
The stimulating device was sending maximum pulses of 0.1 msec of duration.
The reductions of the action potential after application of the substances were indicated as percentages of the initial action potential.
The comparison substance was procaine at the following concentrations: 0.4-0.6 and 0.8M

Data set [2] has as its system cellular line Hela of human fibroplasts. Kind of data set: DNA recovery test (non programmed synthesis of recovery DNA). Type of data set: cell-based. The conditions noted are these: up to the concentration of 5 ml (so in the source). As to the method:
(§1) The compound AL 12 was subjected to the tests of genic mutation. All the tests used for such experiments were carried out and precisely:
(c) DNA recovery test, i.e. test of the non programmed synthesis of recovery DNA on the cellular line Hela of human fibroplasts.

In data set [3] the test system is Schizosaccharomyces Pombe. Kind of data set: Test of genic mutation (forwardly). Type of data set: cell-based. The conditions noted are these: up to the concentration of 5 ml (so in the source). The procedure: as §1
(b) Test of genic mutation (forwardly) of Schizosaccharomyces Pombe, permitting the evaluation of every mutagenic event capable of varying the functionality of every 5 genes involved in the synthesis of adenine;

Data set [4] is described as follows: Pharmacodynamic tests (overall local anesthetic activity comparison). The conditions noted are these: AL 12 vs lidocaine, as it appears from the pharmacodynamic tests. The procedure:
As regards the pharmacodynamic tests, they were carried out on the following compounds:
The local anesthetic power of these compounds was tested in comparison with procaine, xylocaine and tetracaine.

Data set [5] can be described thus: Lethality and toxicity for single dose (rat). The conditions noted are these: in vivo, ip. An excerpt:
Lethality and toxicity for single dose

The test system of the next data set is Salmonella Typhymurium. Kind of data set: Ames test. The format is cell-based. The conditions noted are these: up to the concentration of 5 ml (so in the source). The procedure:
as §1
(a) Ames test using as the substrate a protocariote organism as Salmonella Typhymurium;
In general terms: The Ames test detects mutagens through reverse mutation in bacteria.

A further data set relates to vagal nerve of chicken. Put plainly: Test of inhibition of the action potential of the vagal nerve of chicken. The conditions noted are these: for IC50: parameter (b), stimulations higher than the maximum, read-out: ED 50, inhibition of the width of the action potential; for effects vs tetracaine: same molar concentrations as tetracaine. From the text:
For these tests two investigation parameters were selected:
(a) increase of the stimulating threshold necessary to induce the appearance of the action potential;
(b) inhibition of the potential width as induced by the supra maximum stimulation. AL 12 and AL 12 B were compared with the tetracaine.

The next data set relates to rabbit cornea. Put plainly: Test of the rabbit cornea. The format is in vivo. An excerpt: There were used amounts of AL 12 of 0.25-0.50-1.0% in comparison with amounts of 1% and 2% of xylocaine.
A short description of another data set: in vivo. The conditions noted are these: mouse.
For data set [6], the system named is sciatic nerve of edible frog. The conditions noted are these: as unanimously stated in the literature; cited from earlier work.
A further data set has as its system Wistar rats. Kind of data set: Subacute toxicity, 15 days intramuscular. The conditions noted are these: 10 mg/kg AL 12 or lidocaine at equivalent molecular dose. The procedure: It was tested in two stocks of Wistar rats, in three groups each comprising 20 animals, (10 male and 10 female).
The injections were carried out by intramuscolar route in a point of the thigh for 15 days.

A short description of data set [7]: 60 day intramuscular toxicological study. The format is in vivo, rats. The conditions noted are these: rat, in vivo, im; rats, i.m., 60 days; read-out: dosage of first toxic alterations relative to single dose useful in the human being. As to the method:
(§2) In order to shown the potential toxicity of the compound AL 12 B a toxicological study was programmed which either for the duration of the administration period (60 days), and for the route of introduction in the organism (intramuscular) and for the variety of used dosages (5-10-20 mg/kg) was surely suitable to indicate the possible toxicity of the substance.
(§3) It is pointed out that the lowest dose used in the test is already about 5 to 10 times higher than the single therapeutical dose, possibly used by infiltration in the human being. Male and female rats, having respectively a body weight of about 90 and 65 g, were divided in groups of 6-9 animals of the same sex and stalled in 2 to 3 animals per cage with water and food ad libitum.
(§4) The environment conditions were maintained constant at 24° C., moisture at night-day cycle.
(§5) The drug in apirogenic sterile solution was daily injected by intramuscolar route. At the end of the treatment the animals were anesthetized for the blood removal for the hematochemical and hematological examinations. The animals were than sacrificed and the weight of the single fresh organs was carefuly recorded. The hematochemical parameters which were taken into consideration were the following: glycemia, uricemia, alkaline phosphatase (ALP) malate dehydrogenase (MDH), acetylcholinesterase (CHE), SGPT, SGOT, L-y-glutamyltransferase (Y.G.T.), ornitincarbonyltransferase (O.C.T.), triocylglycerolacylhydrolase (Lipase), isocitratedehydrogenase (ICDH), sorbitole dehydrogenase (SDH), hydroxybutyrate dehydrogenase (HCDH), lactic dehydrogenase (LDHP), […] arylamidase (LAP), sodiemia, potassiemia, chloridemia, magnesiemia, calcemia, total tryglicerides, albumins, globulins, A/G total proteins, total cholesterole, amylasemia, creatininemia. Some hematological parameters were furthermore measured: red corpuscles, platelets, white corpusles, leucocitary form, hemoglobine.
(§6) The urinary parameters taken into consideration were, besides the 24 hour volume, azotemia, creatininuria, amylasuria, uricuria, calciuria, chlorides, sodium and potassium.
(§7) For the statistical evaluations of the weight of the fresh organs the analysis of the covariations was effected in order to eliminate the possible influences of the body weight onto the organ weight.
(§8) The hematological and hematochemical parameters were statistically balanced by means of the variancy analysis by taking into consideration all the gropus and the Student "t" amongst the single treated groups and the control group.
(§9) The homogeneity of the leucocitary form was investigated by the .chi.^2 test.

Another data set concerns Male and female rats. Kind of data set: 60 day intramuscular toxicological study. The conditions noted are these: 60 days. The format is in vivo. The procedure:
as §2, §3, §4, §5, §6, §7, §8, §9

Turning to `CCN(CC)CCN1C(=O)c2ccccc2C1=Cc1ccc(OC)cc1` [AL 12, 3-(4-methoxybenzylidene)-2-(β-diethylaminoetyl)phthalimidine hydrochloride], the “acute toxicity, times higher in comparison with lidocaine” value in the data set on mice was “about 2.4 (2.37) times”. Moreover, in data set [1], the “times more active than lidocaine” value was 5-6 times and the “times more powerful than procaine” value was “about 11.5 times”. The “induction of mutations, DNA recovery test” value in [2] is “unable to induce mutations”. Also, the “induction of mutations, genic mutation (forwardly)” value in data set [3] was “unable to induce mutations”. The “local anesthetic activity: lidocaine is about n times less active than AL 12” value in [4] was “about 4 times”. The 50% lethal dose (LD50) in [5] came out at 52.5 mg/kg. Further, the “induction of mutations, Ames test” value with Salmonella Typhymurium was “unable to induce mutations”. In the data set on vagal nerve of chicken, the IC50 came out at 0.008 µM and the effects vs tetracaine entry is on record as “almost perfectly superimposable to those of tetracaine”. Also, in the data set on rabbit cornea (0.25% AL 12), the “duration of complete anesthesy” value was determined as 30 min. Also, in the data set with rabbit cornea (0.25% AL 12 vs 4 times higher xylocaine), the “duration of complete anesthesy vs xylocaine at a 4 times higher concentration” value is reported as “slightly lower”. The “duration of the complete anesthesy” value in the data set with rabbit cornea (0.50% AL 12) is given as “more than 90 minutes”. For the same compound, in the data set on rabbit cornea (0.50% AL 12 vs 2% xylocaine), the “anesthetic power vs xylocaine at a 4 times higher dose” value is “higher”. In “in vivo” (im), this compound registered an LD50 of 32.5 mg/kg. The compound also displayed a 50% lethal dose (LD50) in the data set “in vivo” (iv) of 13.5 mg/kg.

With `CCN(CC)CC(=O)Nc1c(C)cccc1C` [lidocaine], in [6], the “local anesthetic activity, times higher than procaine” value is “about 2.2 times”. Moreover, the “food consumption and diuresis” value in the data set on Wistar rats (all along the treatment period) is on record as “normal”. In the data set on Wistar rats (intramuscular, 15 days), the “all the other functions” value was “remained unchanged”; the autoptic examination result is on record as “Nothing out of the rule was observed”; the “loss of functionality of the injected leg, duration” value is reported as “about one”; the “weight of the organs vs control animals” value was “did not differ from that of the control animals”.

With `CCN(CC)CCN1C(=O)c2ccccc2C1=Cc1ccc(OC(C)=O)cc1` [AL 12B, 3-(4-acetoxybenzylidne)-2-(β diethylaminoethyl)-phthalimidine hydrochloride], in [1], the “times more active than lidocaine” value is listed as “about 4 times” and the “times more powerful than procaine” value is reported as “at least 8.5 times”. The IC50 in data set [1] (sciatic nerve of edible frog, read-out: ED50 (reduction of action potential)) was determined as 80000 µM. For the same compound, the selectivity ratio at 1440 h in [7] was 10. Further, in the data set with Male and female rats (5 mg/kg i.m.), the “all the investigated parameters” value is reported as “none appeared to be modified”. For the same compound, in the data set on Male and female rats (female, 10 mg/kg i.m.), the HBDG entry was “increase”; the LDH-P entry was “increase”; the globulins entry is recorded as “increase”; the “urinary parameters, females” value was “no alteration might be appreciated”. Also, the “alterations in female animals” value in the data set with Male and female rats (female, 20 mg/kg i.m.) is on record as “no alteriation might be appreciated”. Besides, the “body weight growth vs control” value with Male and female rats (male and female rats, 5-10-20 mg/kg i.m.) is “comparable with that of the control animals”. In the data set with Male and female rats (male and female, 10 mg/kg i.m.), the hematological parameters result was “None of the hematological parameters was modified”. Also, the “body weight growth, males at higher dosages (not statistically significant)” value in the data set with Male and female rats (male rats, 10-20 mg/kg i.m.) is on record as “tendentially reduced”. Further, in the data set with Male and female rats (male, 10 mg/kg i.m.), the albumins result is on record as “reduction”; the amylasuria result is recorded as “reduced”; the glycemia result is reported as “reduction”; the “spleen weight, males” value was “slight increase”. The urinary chloride entry with Male and female rats (male, 10 mg/kg i.m.) is reported as “reduced”. In addition, in the data set on Male and female rats (male, 20 mg/kg i.m.), the “weight of the spleen” value is recorded as “increased” and the “weight of the suprarenal glands” value is “increased”. Further, the “ALP (alkaline phosphatase)” value in the data set on Male and female rats (male, found also in female, 10 mg/kg i.m.) was “slight increase”. Moreover, in the data set on Male and female rats (rats, 5-10-20 mg/kg i.m.), the “dose-dependence of the observed modifications” value was “none of the observed modifications, was shown to be dose-dependent” and the overall toxicity entry was “not particularly toxic”. Moreover, the effects vs tetracaine result in the data set with vagal nerve of chicken is recorded as “almost perfectly superimposable to those of tetracaine”.

For the compound `CN(C)CCCN1C(=O)c2ccccc2C1=Cc1ccccc1` [AL 5, 3-benzylidene-2-(γ-dimethylaminopropyl)-phthalimidine hydrochloride], the “times more powerful than procaine” value in data set [1] is on record as “about 5 times”.

In the case of `CCCCNc1ccc(C(=O)OCCN(C)C)cc1` [tetracaine, reference compound], the IC50 in the data set on vagal nerve of chicken worked out at 0.008 µM.

`CCN(CC)CC(=O)Nc1c(C)cccc1C` [xylocaine, reference compound]: the “duration of the complete anesthesy” value in the data set on rabbit cornea (2% xylocaine) was 60 min.
